The record followed here is patent US6803457B1, “Compounds for the treatment of ischemia” (Pfizer, Inc., priority 1999, dated 2004).

As usually defined, the melting point is the temperature of the solid-liquid transition. For `CNC(=O)[C@H]1O[C@@H](n2cnc3c(NCc4cc(Cl)ccc4OCC4OC(O)C(O)C(O)C4O)ncnc32)[C@H](O)[C@@H]1N` (stereo partly drawn) [Example 2, (2S,3S,4R,5R)3-Amino-5-{6-[5-chloro-2-(3,4,5,6-tetrahydroxytetrahydropyran-2-ylmethoxy)benzylamino]purin-9-yl}-4-hydroxytetrahydrofuran-2-carboxylic acid methylamide], the melting point lay within 212 to 218 °C. Next, `CNC(=O)[C@H]1O[C@@H](n2cnc3c(NCc4cc(Cl)ccc4OCCN4CCOCC4)ncnc32)[C@H](O)[C@@H]1N` [Example 4, (2S,3S,4R,5R)3-Amino-5-{6-[5-chloro-2-(2-morpholin-4-ylethoxy)benzylamino]-purin-9-yl}-4-hydroxytetrahydrofuran-2-carboxylic acid methylamide]: 99 to 108 °C; `CNC(=O)[C@H]1O[C@@H](n2cnc3c(NCc4cc(Cl)ccc4OCC4CCC4)ncnc32)[C@H](O)[C@@H]1N` [Example 5, (2S,3S,4R,5R)3-Amino-5-[6-(5-chloro-2-cyclobutylmethoxybenzylamino)-purin-9-yl]-4-hydroxytetrahydrofuran-2-carboxylic acid methylamide]: 107 to 117 °C.

As to `CNC(=O)[C@H]1O[C@@H](n2cnc3c(NCc4cc(Cl)ccc4OCc4cccc(OC)c4)ncnc32)[C@H](O)[C@@H]1N` [Example 6, (2S,3S,4R,5R)3-Amino-5-{6-[5-chloro-2-(3-methoxy-benzyloxy)-benzylamino]-purin-9-yl}-4-hydroxytetrahydrofuran-2-carboxylic acid methylamide], the melting point was 102 to 108 °C. Next, `CNC(=O)[C@H]1O[C@@H](n2cnc3c(NCc4cc(Cl)ccc4OCc4cc(OC)ccc4OC)ncnc32)[C@H](O)[C@@H]1N` [Example 7, (2S,3S,4R,5R)3-Amino-5-{6-[5-chloro-2-(2,5-dimethoxy-benzyloxy)-benzylamino]-purin-9-yl}-4-hydroxytetrahydrofuran-2-carboxylic acid methylamide]: 112 to 115 °C.

`CNC(=O)[C@H]1O[C@@H](n2cnc3c(NCc4cc(Cl)ccc4OCc4cccc(Cl)c4)ncnc32)[C@H](O)[C@@H]1N` [Example 8, (2S,3S,4R,5R)3-Amino-5-{6-[5-chloro-2-(3-chloro-benzyloxy)-benzylamino]-purin-9-yl}-4-hydroxytetrahydrofuran-2-carboxylic acid methylamide]: the melting point lay within 85 to 90 °C. The compound `CNC(=O)[C@H]1O[C@@H](n2cnc3c(NCc4cc(Cl)ccc4OCc4ccc(Cl)cc4)ncnc32)[C@H](O)[C@@H]1N` [Example 9, (2S,3S,4R,5R)3Amino-5-{6-[5-chloro-2-(4-chloro-benzyloxy)-benzylamino]-purin-9-yl}-4-hydroxytetrahydrofuran-2-carboxylic acid methylamide] returned a melting point of 88 to 92 °C. Next, `CNC(=O)[C@H]1O[C@@H](n2cnc3c(NCc4cc(Cl)ccc4OCc4ccccc4Cl)ncnc32)[C@H](O)[C@@H]1N` [Example 10, (2S,3S,4R,5R)3-Amino-5-{6-[5-chloro-2-(2-chloro-benzyloxy)-benzylamino]-purin-9-yl}-4-hydroxytetrahydrofuran-2-carboxylic acid methylamide]: 88 to 92 °C; `CNC(=O)[C@H]1O[C@@H](n2cnc3c(NCc4cc(Cl)ccc4OCC4CCOC4)ncnc32)[C@H](O)[C@@H]1N` (stereo partly drawn) [Example 11, (2S,3S,4R,5R)3-Amino-5-{6-[5-chloro-2-(tetrahydrofuran-3-ylmethoxy)-benzylamino]-purin-9yl}-4-hydroxytetrahydrofuran-2-carboxylic acid methylamide]: 114 to 118 °C; `CNC(=O)[C@H]1O[C@@H](n2cnc3c(NCc4cc(Cl)ccc4OCc4ccc(C)cc4)ncnc32)[C@H](O)[C@@H]1N` [Example 12, (2S,3S,4R,5R)3-Amino-5-{6-[5-chloro-2-(4-methyl-benzyloxy)-benzylamino]-purin-9-yl}-4-hydroxytetrahydrofuran-2-carboxylic acid methylamide]: 82 to 86 °C. Regarding `CNC(=O)[C@H]1O[C@@H](n2cnc3c(NCc4cc(Cl)ccc4OCc4ccccc4C)ncnc32)[C@H](O)[C@@H]1N` [Example 13, (2S,3S,4R,5R)3-Amino-5-{6-[5-chloro-2-(2-methyl-benzyloxy)-benzylamino]-purin-9-yl}-4-hydroxytetrahydrofuran-2-carboxylic acid methylamide], the melting point lay in the range of 76 to 80 °C. Take `CNC(=O)[C@H]1O[C@@H](n2cnc3c(NCc4cc(Cl)ccc4OCc4cccc(C)c4)ncnc32)[C@H](O)[C@@H]1N` [Example 14, (2S,3S,4R,5R)3-Amino-5-{6-[5-chloro-2-(3-methyl-benzyloxy)-benzylamino]-purin-9-yl}-4-hydroxytetrahydrofuran-2-carboxylic acid methylamide]: the melting point lay within 92 to 97 °C. With `CNC(=O)[C@H]1O[C@@H](n2cnc3c(NCc4cc(Cl)ccc4OCc4ccccc4OC)ncnc32)[C@H](O)[C@@H]1N` [Example 15, (2S,3S,4R,5R)3-Amino-5-{6-[5-chloro-2-(2-methoxybenzyloxy)benzylamino]-purin-9-yl}-4-hydroxytetrahydrofuran-2-carboxylic acid methylamide] the figure was 102 to 123 °C.

On to `CNC(=O)[C@H]1O[C@@H](n2cnc3c(NCc4cc(Cl)ccc4OCc4ccoc4)ncnc32)[C@H](O)[C@@H]1N` [Example 16, (2S,3S,4R,5R)3-Amino-5-{6-[5-chloro-2-(furan-3-ylmethoxy)benzylamino]-purin-9-yl}-4-hydroxytetrahydrofuran-2carboxylic acid methylamide], for which the melting point lay within 93 to 97 °C.

Compound `CNC(=O)[C@H]1O[C@@H](n2cnc3c(NCc4cc(Cl)ccc4OCC4CCCC4)ncnc32)[C@H](O)[C@@H]1N` [Example 18, (2S,3S,4R,5R)3-Amino-5-[6-(5-chloro-2-cyclopentylmethoxy-benzylamino)-purin-9-yl]-4-hydroxytetrahydrofuran-2-carboxylic acid methylamide] yielded a melting point of 110.6 to 116.2 °C.

`CNC(=O)[C@H]1O[C@@H](n2cnc3c(NCc4cc(Cl)ccc4OCC4CCOC4)ncnc32)[C@H](O)[C@@H]1N` (stereo partly drawn) [Example 20, (2S,3S,4R,5R)3-Amino-5-{6-[5-chloro-2-(tetrahydro-furan-3-ylmethoxy)-benzylamino]-purin-9-yl}-4-hydroxy-tetrahydro-furan-2-carboxylic acid methylamide] displayed a melting point of 132 to 161 °C. On to `CNC(=O)[C@H]1O[C@@H](n2cnc3c(NCc4cc(Cl)ccc4OCc4ccco4)ncnc32)[C@H](O)[C@@H]1N` [Example 22, (2S,3S,4R,5R)3-Amino-5-{6-(5-chloro-2-(furan-2-ylmethoxy)benzylamino]purin-9-yl}-4-hydroxytetrahydrofuran-2-carboxylic acid methylamide], for which the melting point is 187 to 192 °C. Next, `CNC(=O)[C@H]1O[C@@H](n2cnc3c(NCc4cc(Cl)ccc4OCc4cc(C)oc4C)ncnc32)[C@H](O)[C@@H]1N` [Example 24, (2S,3S,4R,5R)3-Amino-5-{6-[5-chloro-2-(2,5-dimethylfuran-3-ylmethoxy)benzylamino]purin-9-yl}-4-hydroxytetrahydrofuran-2-carboxylic acid methylamide]: 85 to 88 °C. With `CNC(=O)[C@H]1O[C@@H](n2cnc3c(NCc4cc(Cl)ccc4OCc4cccnc4)ncnc32)[C@H](O)[C@@H]1N` [Example 25, (2S,3S,4R,5R)3-Amino-5-{6-[5-chloro-2-(pyridin-3-ylmethoxy)benzylamino]purin-9-yl}-4-hydroxytetrahydrofuran-2-carboxylic acid methylamide] the figure was 200 to 218 °C; with `CNC(=O)[C@H]1O[C@@H](n2cnc3c(NCc4cc(Cl)ccc4OCc4ccc(CN(C)C)o4)ncnc32)[C@H](O)[C@@H]1N` [Example 26, (2S,3S,4R,5R)3-Amino-5-{6-[5-chloro-2-(5-dimethylaminomethylfuran-2-ylmethoxy)benzylamino]purin-9-yl}-4-hydroxytetrahydrofuran-2-carboxylic acid methylamide], 78 to 81 °C; with `CNC(=O)[C@H]1O[C@@H](n2cnc3c(NCc4cc(Cl)ccc4OCc4nccs4)ncnc32)[C@H](O)[C@@H]1N` [Example 27, (2S,3S,4R,5R)3-Amino-5-{6-[5-chloro-2-(thiazol-2-ylmethoxy)-benzylamino]-purin-9-yl}-4-hydroxy-tetrahydro-furan-2-carboxylic acid methylamide], 208 to 209 °C. Next, `CNC(=O)[C@H]1O[C@@H](n2cnc3c(NCc4cc(Cl)ccc4OCc4nc5ccccc5s4)ncnc32)[C@H](O)[C@@H]1N` [Example 28, (2S,3S,4R,5R)3-Amino-5-{6-[2-(benzothiazol-2-ylmethoxy)-5-chlorobenzylamino]purin-9-yl}-4-hydroxytetrahydrofuran-2-carboxylic acid methylamide]: 127 to 129 °C; `CNC(=O)[C@H]1O[C@@H](n2cnc3c(NCc4cc(Cl)ccc4OCc4cc5ccccc5o4)ncnc32)[C@H](O)[C@@H]1N` [Example 29, (2S,3S,4R,5R)3-Amino-5-{6-[2-(benzofuran-2-ylmethoxy)-5-chlorobenzylamino]purin-9-yl}-4-hydroxytetrahydrofuran-2-carboxylic acid methylamide]: 127 to 130 °C; `CNC(=O)[C@H]1O[C@@H](n2cnc3c(NCc4cc(Cl)ccc4OCc4ccns4)ncnc32)[C@H](O)[C@@H]1N` [Example 30, (2S,3S,4R,5R)3-Amino-5-{6-[5-chloro-2-(isothiazol-5-ylmethoxy)benzylamino]purin-9-yl}-4-hydroxytetrahydrofuran-2-carboxylic acid methylamide]: 180 to 183 °C. `CNC(=O)[C@H]1O[C@@H](n2cnc3c(NCc4cc(Cl)ccc4OCc4cccs4)ncnc32)[C@H](O)[C@@H]1N` [Example 31, (2S,3S,4R,5R)3-Amino-5-{6-[5-chloro-2-(thiophen-2-ylmethoxy)benzylamino]purin-9-yl}-4-hydroxytetrahydrofuran-2-carboxylic acid methylamide] displayed a melting point of 135 to 141 °C.
